{"source": "patent US20140065610A1", "about": "“METHOD FOR PREDICTING CLINICAL BENEFIT IN THE TREATMENT OF NEURODEVELOPMENTAL, NEUROLOGICAL OR NEUROPSYCHIATRIC DISORDERS” (priority 2011, published 2014)", "type_in_all_cases": "in vivo, human", "key": {"[1]": {"test_system": "adults with schizophrenia with predominantly negative symptoms", "test": "Phase II GRI schizophrenia trial: PANSS negative symptom factor score responder rate", "conditions": "after 8 weeks", "protocol": "FIG. 3: Response rates of dichotomized PANSS negative symptom factor score (response defined as ≧20% drop from baseline) at week 8. Shaded background bars are response rates in overall per protocol population. Solid grey bars are response rates in CFHR1 stratified subpopulations using natural cut-off for CFHR1.\n(§1) A Phase II study was performed in adults with schizophrenia with predominantly negative symptoms. The individuals were clinically stable and on stable treatment with second generation antipsychotics. The study was conducted at multiple sites in Brazil, France, Germany, Hungary, Japan, Mexico, Poland, Russia, and the US according to ICH Guidelines for Good Clinical Practice (ClinicalTrials.gov Identifier: NCT00616798). The study protocol was approved by the health authorities of each country and the respective ethic committees of each site. All 323 patients had provided written consent to participate in the study and 224 patients had consented to the collection and use of serum samples for exploratory biomarker analysis. After a screening and a 4-week run-in period, patients were randomized to double-blind adjunctive treatment with placebo, 10 mg, 30 mg, or 60 mg of GRI given once a day for a duration of 8 weeks, followed by 4 week follow-up period. Similar percentages of patients in the four treatment arms completed the study.\n(§2) Patients were assessed at screening, week −2, baseline, weeks 1, 2, 4, 6, 8, 10 and 12. Assessments included the PANSS, Clinical Global Impression—Severity of Illness (CGI-S) and Clinical Global Impression-Global Improvement (CGI-I) for overall psychopathology 56, CGI-S and CGI-I of Negative Symptoms (CGI-S-N, CGI-I-N) for assessment of negative symptoms only 57, and standard examinations of extrapyramidal symptoms (BAS58, SAS59, AIMS60). The primary efficacy variable assessing effects on negative symptoms was the change from baseline in the PANSS negative symptom factor score 64. Secondary efficacy variables were i) proportion of patients showing a clinical response in negative symptom defined as a 20% change from baseline in the PANSS negative symptom factor score and ii) CGI-I-N. Additional analyses included change in PANSS total score, remaining PANSS factor scores 64 CGI-S and CGI-I.\nFor the 10 mg arm the response rate in the CFHR1-high group was 88% compared to 69% in the non-stratified group, and for the 30 mg arm the response rate in the CFHR1-high group was 78% compared to 66% in the non-stratified group."}, "[2]": {"test_system": "adults with schizophrenia with predominantly negative symptoms", "test": "Phase II GRI schizophrenia trial: change of PANSS negative symptom factor score from baseline", "protocol": "FIG. 2: Change of PANSS negative symptom factor score from baseline in all patients (FIG. 2(a)) and in CFHR1-low patients (FIG. 2(b)) and CFHR1-high patients (FIG. 2(c)) using natural cutoff for CFHR1. Patients with serum concentration ≦28 ug/ml were classified as CFHR1-low and patients with serum concentration >28 ug/ml were classified as CFHR1-high. Estimates of expected response and standard error bars from MMRM analysis. Dash-dot line and circle Placebo; solid line and squares 10 mg GRI; solid line and upward-pointing triangles 30 mg GRI; dashed line and diamonds 60 mg GRI.\nas §1, §2\nResults for the overall patient cohort are shown in the top panel, for the CFHR1-low patients in the middle panel and for the CFHR1-high patients in the lower panel. […]"}, "[3]": {"test_system": "adults with schizophrenia with predominantly negative symptoms", "test": "Phase II GRI schizophrenia trial: CGI-I negative symptoms responder rate", "excerpt": "FIG. 4: Response rates of dichotomized CGI-I negative symptoms rating score (response defined as “much improved” or “very much improved”) at week 8. Shaded background bars are response rates in overall per protocol population. Solid grey bars are response rates in CFHR1 stratified subpopulations using natural cut-off for CFHR1.\nFIG. 6: Response rates of dichotomized CGI-I negative symptoms rating score (response defined as “much improved” or “very much improved”) at week 8. Shaded background bars are response rates in overall per protocol population. Solid grey bars are response rates in CFHR1 stratified subpopulations using CFHR1/CFH ratio, with L (low) corresponding to CFHR1/CFH ratio below 0.01, M (medium) corresponding to CFHR1/CFH ratio above 0.01 and below 0.08 and with H (high) corresponding to CFHR1/CFH ratio above 0.08.\nFIG. 9: Response rates of dichotomized CGI-I negative symptoms rating score (response defined as “much improved” or “very much improved”) at week 8. Shaded background bars are response rates in overall per protocol population from those who had consented for DNA sample. Solid grey bars are response rates in CFHR1 stratified subpopulations using genetic status of CFHR1 allele.\nas §1, §2\nAs a secondary endpoint in the clinical trial the Clinical Global Impression (CGI) improvement of negative symptoms between baseline and week 8 evaluation was used. This outcome measure was treated as a binary variable. […] The analysis was performed on the combined placebo, 10 mg and 30 mg biomarker population using the per protocol (PP) population. Explanatory variables for this analysis are the baseline measurements of all measured proteins, the treatment (placebo or pooled 10 mg/30 mg treatment) and the treatment-protein interaction. A logistic regression model was used as predictor.\nFor the 10 mg arm the response rate in the CFHR1-high group was 69% compared to 39% in the non-stratified group, and for the 30 mg arm the response rate in the CFHR1-high group was 67% compared to 45% in the non-stratified group. […]"}, "[4]": {"conditions": "10 mg arm, non-stratified group"}, "[5]": {"conditions": "30 mg arm, non-stratified group"}}, "data": [{"compound": "C[C@H](Oc1ccc(S(C)(=O)=O)cc1C(=O)N1CCN(c2ncc(C(F)(F)F)cc2F)CC1)C(F)(F)F", "note": "[GRI, [4-(3-fluoro-5-trifluoromethyl-pyridin-2-yl)-piperazin-1-yl]-[5-methanesulfonyl-2-((S)-2,2,2-trifluoro-1-methyl-ethoxy)-phenyl]-methanone]", "values": [{"measurement": "response rate, PANSS negative symptom factor score (at least 20% decrease from baseline)", "setting": "[1]; 10 mg arm, CFHR1-high group", "result": 88, "unit": "%"}, {"measurement": "response rate, PANSS negative symptom factor score (at least 20% decrease from baseline)", "setting": "[1]; [4]", "result": 69, "unit": "%"}, {"measurement": "response rate, PANSS negative symptom factor score (at least 20% decrease from baseline)", "setting": "[1]; 30 mg arm, CFHR1-high group", "result": 78, "unit": "%"}, {"measurement": "response rate, PANSS negative symptom factor score (at least 20% decrease from baseline)", "setting": "[1]; [5]", "result": 66, "unit": "%"}, {"measurement": "effect size, change in PANSS negative symptom factor score from baseline", "setting": "[2]; 10 mg arm, CFHR1-high group (serum CFHR1 >28 ug/ml), 8 weeks, vs placebo", "result": "−1.01"}, {"measurement": "effect size, change in PANSS negative symptom factor score from baseline", "setting": "[2]; [4]", "result": "−0.42"}, {"measurement": "effect size, change in PANSS negative symptom factor score from baseline", "setting": "[2]; 30 mg arm, CFHR1-high group (serum CFHR1 >28 ug/ml)", "result": "−0.76"}, {"measurement": "effect size, change in PANSS negative symptom factor score from baseline", "setting": "[2]; [5]", "result": "−0.47"}, {"measurement": "response rate, CGI of negative symptoms", "setting": "[3]; 10 mg arm, CFHR1+/+ group (genetic status)", "result": 57, "unit": "%"}, {"measurement": "response rate, CGI of negative symptoms", "setting": "[3]; 10 mg arm, CFHR1-high group (natural cut-off 28 ug/ml), week 8", "result": 69, "unit": "%"}, {"measurement": "response rate, CGI of negative symptoms", "setting": "[3]; 10 mg arm, H subgroup (CFHR1/CFH ratio above 0.08)", "result": 69, "unit": "%"}, {"measurement": "response rate, CGI of negative symptoms", "setting": "[3]; 10 mg arm, L group (CFHR1/CFH ratio below 0.01), small sample size", "result": 0, "unit": "%"}, {"measurement": "response rate, CGI of negative symptoms", "setting": "[3]; 10 mg arm, M subgroup (CFHR1/CFH ratio medium)", "result": 19, "unit": "%"}, {"measurement": "response rate, CGI of negative symptoms", "setting": "[3]; 10 mg arm, non-stratified group of patients who consented for DNA sample", "result": 39, "unit": "%"}, {"measurement": "response rate, CGI of negative symptoms", "setting": "[3]; 10 mg arm, non-stratified serum subgroup, week 8", "result": 39, "unit": "%"}, {"measurement": "response rate, CGI of negative symptoms", "setting": "[3]; 30 mg arm, CFHR1+/+ group (genetic status)", "result": 67, "unit": "%"}, {"measurement": "response rate, CGI of negative symptoms", "setting": "[3]; 30 mg arm, CFHR1-high group (natural cut-off 28 ug/ml), week 8", "result": 67, "unit": "%"}, {"measurement": "response rate, CGI of negative symptoms", "setting": "[3]; 30 mg arm, H subgroup (CFHR1/CFH ratio above 0.08)", "result": 67, "unit": "%"}, {"measurement": "response rate, CGI of negative symptoms", "setting": "[3]; 30 mg arm, L group (CFHR1/CFH ratio below 0.01), small sample size", "result": 0, "unit": "%"}, {"measurement": "response rate, CGI of negative symptoms", "setting": "[3]; 30 mg arm, M subgroup (CFHR1/CFH ratio medium)", "result": 28, "unit": "%"}, {"measurement": "response rate, CGI of negative symptoms", "setting": "[3]; 30 mg arm, non-stratified group of patients who consented for DNA sample", "result": 46, "unit": "%"}, {"measurement": "response rate, CGI of negative symptoms", "setting": "[3]; 30 mg arm, non-stratified serum subgroup, week 8", "result": 45, "unit": "%"}, {"measurement": "response rate, CGI of negative symptoms", "setting": "[3]; 60 mg arm, H subgroup (CFHR1/CFH ratio above 0.08)", "result": 33, "unit": "%"}, {"measurement": "response rate, CGI of negative symptoms", "setting": "[3]; 60 mg arm, L group (CFHR1/CFH ratio below 0.01), small sample size", "result": 100, "unit": "%"}, {"measurement": "response rate, CGI of negative symptoms", "setting": "[3]; 60 mg arm, M subgroup (CFHR1/CFH ratio medium)", "result": 25, "unit": "%"}, {"measurement": "response rate, CGI of negative symptoms", "setting": "[3]; 60 mg arm, non-stratified serum subgroup, week 8", "result": 34, "unit": "%"}]}]}
